Results published in ChEMBL document CHEMBL2157996, “Thioglycine and L-thiovaline: biologically active H₂S-donors” (Bioorg Med Chem, 2012).
Calls of active or inactive are those of the source. The calls are words filed in the database; no cut-off is given here.

Tests used:
[1] = Induction of H2S production after 15 mins by methylene blue method; assay type: physicochemical; details: 0.25 h
[2] = Drug degradation in Hanks buffered salt solution assessed as formation of glycine N-carboxyanhydride at 37 degC; assay type: physicochemical; details: buffer
[3] = Vasodilatory activity in Wistar rat RASMC cells assessed as increase in cGMP levels after 5 mins by enzyme immunoassay; assay type: functional, cell-based
[4] = Induction of H2S production at 200 uM measured every 15 sec to 1 min by thiobimane fluorescent method
[5] = Vasodilatory activity in Wistar rat RASMC cells assessed as increase in cGMP levels at 100 uM after 5 mins by enzyme immunoassay relative to control; assay type: functional, cell-based
[6] = Induction of H2S production after 60 mins by thiobimane fluorescent method; assay type: physicochemical; details: 1 h
[7] = Vasodilatory activity in Wistar rat RASMC cells assessed as increase in cGMP levels up to 3 mM after 5 mins by enzyme immunoassay; assay type: functional, cell-based
Rattus norvegicus [8] = assay: Induction of H2S release in Sprague-Dawley rat plasma assessed as increase in H2S levels at 5 mg/kg, ip by amperometry; assay type: functional, organism-based; parameters: dose 5 mg/kg; details: TDE = time-dependent effect
Rattus norvegicus [9] = assay: Induction of H2S release in Sprague-Dawley rat plasma assessed as increase in H2S levels at 5 mg/kg, ip after 30 mins by amperometry; assay type: functional, organism-based; parameters: dose 5 mg/kg
Rattus norvegicus [10] = assay: Induction of H2S release in Sprague-Dawley rat plasma assessed as increase in H2S levels at 5 mg/kg, ip upto 8 hrs by amperometry; assay type: functional, organism-based; parameters: dose 5 mg/kg
[11] = Induction of H2S production by sodium nitroprusside assay; assay type: physicochemical
[12] = Induction of H2S production by amperometry; assay type: physicochemical
[13] = Induction of H2S production at 100 uM by amperometry; assay type: physicochemical
[14] = Stability of the compound assessed as compound remaining at 25 degC after 24 hrs by NMR spectroscopy in the presence of NaHCO3; assay type: physicochemical; details: NaHCO3 present; read-out: Stability
[15] = Stability of the compound assessed as compound remaining at 40 degC after 24 hrs by NMR spectroscopy in the presence of NaHCO3; assay type: physicochemical; details: NaHCO3 present; read-out: Stability
[16] = Stability of the compound assessed as compound remaining at 40 degC after 36 hrs by NMR spectroscopy in the presence of NaHCO3; assay type: physicochemical; details: NaHCO3 present; read-out: Stability
[17] = Stability of the compound assessed as compound remaining at 40 degC after 48 hrs by NMR spectroscopy in the presence of NaHCO3; assay type: physicochemical; details: NaHCO3 present; read-out: Stability
[18] = Stability of the compound assessed as compound remaining at 40 degC after 60 hrs by NMR spectroscopy in the presence of NaHCO3; assay type: physicochemical; details: NaHCO3 present; read-out: Stability
[19] = Stability of the compound assessed as compound remaining at 40 degC after 72 hrs by NMR spectroscopy in the presence of NaHCO3; assay type: physicochemical; details: NaHCO3 present; read-out: Stability

SMILES: CC(C)[C@H](N)C(=O)S
- Activity [1]: Active
- Drug metabolism [2]: Active
- Activity [3]: Dose-dependent effect
- Activity [4]: Active

SMILES: CC(C)[C@H](N)C(=O)O
- Activity [5]: inactive

SMILES: NCC(=O)O
- Activity [5]: inactive

SMILES: NCC(=O)S [THIOGLYCIN]
- Activity [1]: Active
- Activity [6]: Active
- Drug metabolism [2]: Active
- Activity [3]: Dose-dependent effect
- Activity [7]: Active
- Activity (Rattus norvegicus [8]): tde
- Activity (Rattus norvegicus [9]): Active
- Activity (Rattus norvegicus [10]): Active
- Activity [4]: Active
- fold change (FC) [5]: 10
- Activity [11]: Active
- Activity [12]: Dose-dependent effect
- Activity [13]: Active
- remaining at 24 h [14]: 100%
- remaining at 24 h [15]: 88%
- remaining at 36 h [16]: 83%
- remaining at 48 h [17]: 76%
- remaining at 60 h [18]: 72%
- remaining at 72 h [19]: 85%
